The nature of assay [1]: Inhibition of IDH2 R172S mutant (unknown origin). Also noted: species or system Homo sapiens.
The nature of assay [2]: Downregulation of HoxA9 expression in human AML3 cells. The assay is classed as functional, cell-based.
Assay [3] concerns the target Isocitrate dehydrogenase [NADP], mitochondrial (Homo sapiens, UniProt P48735, R140Q). Description: Inhibition of FLAG-tagged IDH2 R140Q mutant (unknown origin) extracted from baculovirus infected Sf9 cells.
Assay [4] addresses Isocitrate dehydrogenase [NADP], mitochondrial (Homo sapiens, UniProt P48735, R172K). Description: Inhibition of FLAG-tagged IDH2 R172K mutant (unknown origin) extracted from baculovirus infected Sf9 cells.
The next assay deals with U-87 MG. Description: Antiproliferative activity against human U87. The assay is classed as functional, cell-based, U-87MG ATCC.
The next assay deals with TF-1. The assay is described as follows: Antiproliferative activity against human TF-1 cells. Format: functional, cell-based.
Another assay has as its system HCT-116. The assay is described as follows: Antiproliferative activity against human HCT-116 cells. The assay is classed as functional, cell-based.

What is called IC50 is the midpoint of a concentration-inhibition curve. Read a low IC50 as greater potency.

Chain of Isocitrate dehydrogenase [NADP], mitochondrial (Homo sapiens, UniProt P48735, R172K) (P48735 40-452 R172K limits assumed): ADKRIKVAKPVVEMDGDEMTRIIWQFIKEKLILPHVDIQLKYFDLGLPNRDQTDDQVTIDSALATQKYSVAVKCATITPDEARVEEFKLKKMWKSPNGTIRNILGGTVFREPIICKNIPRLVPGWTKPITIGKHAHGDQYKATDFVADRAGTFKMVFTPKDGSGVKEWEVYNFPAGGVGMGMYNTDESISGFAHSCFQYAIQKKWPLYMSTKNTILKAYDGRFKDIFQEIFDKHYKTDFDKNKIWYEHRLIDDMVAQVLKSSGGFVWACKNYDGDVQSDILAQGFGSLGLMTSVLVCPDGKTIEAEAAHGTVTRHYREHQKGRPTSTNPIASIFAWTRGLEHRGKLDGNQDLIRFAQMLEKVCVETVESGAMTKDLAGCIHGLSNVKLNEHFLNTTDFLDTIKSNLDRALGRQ
Chain of Isocitrate dehydrogenase [NADP], mitochondrial (Homo sapiens, UniProt P48735, R140Q) (P48735 40-452 R140Q limits assumed): as the sequence (P48735 40-452 R172K limits assumed) above, with R101Q, K133R counted along it

Compound `C[C@H](O)c1cccc(NC(=O)c2nn(Cc3ccc(F)cc3)c3c2CN(C(=O)c2ccc[nH]2)C[C@H]3C)c1` registered an IC50 in assay [1] of 1030 nM.
The compound `C[C@H]1C[C@@H](n2c(Nc3ccc(OC(F)(F)F)cc3)nc3cc(CCC(=O)O)ccc32)CC(C)(C)C1` [BAY1436032] showed a concentration for half-maximal inhibition (IC50) in assay [2] of 60 nM.
On to `CC(C)(O)CNc1nc(Nc2ccnc(C(F)(F)F)c2)nc(-c2cccc(C(F)(F)F)n2)n1` [ENASIDENIB], for which the IC50 is 320 nM in assay [3]; 200 nM in assay [4]; 10 nM with U-87 MG; 20 nM with TF-1; 530 nM in the assay on HCT-116.

Values taken from ChEMBL document CHEMBL6103547, “Comprehensive exploration of isocitrate dehydrogenase (IDH) mutations: Tumorigenesis, drug discovery, and covalent inhibitor advances” (Eur J Med Chem, 2025).
